# Experimental data from patent US6867210B2, “Aryl substituted pyrimidines” (Euro-Celtique S.A., priority 2000, dated 2005).
# Where two headings read alike, the source gives them in different places.
# What was measured:
# [1] = target: rBIIA isoform of Na+ channels (Rattus norvegicus, UniProt P04775); experiment: Electrophysiological Assay 1: patch-clamp of voltage-sensitive Na+ currents in HEK-293 cells; assay type: cell-based; settings: HEK-293 cells stably expressing rBIIA; for Ki: apparent antagonist dissociation constant for inactivated sodium channels
# Experimental: Cell preparation: HEK-293 (NaIIA-B2) cell line stably expressing the rBIIA isoform of Na^+ channels was established in-house. The cells were cultured using standard techniques, as described previously (Verdoom, T. A, et al., Neuron 4:919-928 (1990)). For electrophysiology, cells were plated onto poly-D-lysine pre-coated Cellware 35 mm Petri dishes (BIOCOAT, Becton Dickinson) at a density of ˜10^4 cells/dish on the day of re-seeding from confluent cultures. Our experience has been that cells are suitable for recordings for 2-3 days after plating.
# Patch-clamp recordings of voltage-sensitive Na^+ currents: Whole-cell voltage-clamp recordings were made using conventional patch-clamp techniques (Hamill et al., Pfluegers Arch. 391:85-100 (1981)) with an Axopatch 200A amplifier (Axon Instruments, Foster City, Calif.). The recording chamber was continuously superfused with the external solution (150 mM NaCl, 5.4 mM KCl, 1.8 mM CaCl2, 1 mM MgCl2, 10 mM HEPES, 10 mM glucose, pH 7.4 adjusted with NaOH, osmolality ˜320 mmol/kg) at a speed of about 1 mL/min. Recording pipettes were pulled from the thick-walled capillaries (WPI, Sarasota, Fla.) and fire-polished. The pipette resistances ranged from 1 to 3 MΩ when the pipettes were filled with internal solution containing (in mM): 130 CsF, 20 NaCl, 2 MgCl2, 10 EGTA, 10 HEPES, pH adjusted to 7.4 with CsOH, osmolality ˜310 mmol/kg. Drugs and intervening wash-outs were applied through a linear array of flow pipes (Drummond Microcaps, 2 μL, 64-mm length). Compounds are dissolved in dimethylsulfoxide (DMSO) to make a 30 mM stock solution, which was subsequently diluted into the external solution to give final concentrations of 0.1-100 μM. At the highest (1%) concentration, DMSO inhibited the size of Na^+ current only slightly. Currents were recorded at room temperature (22-25° C.), filtered at 3 kHz with an active 8-pole Bessel filter (Frequency Devices, Haverhill, Mass.), digitized at 10-50 μs intervals, and stored using Digidata 1200 analog/digital interface with Pclamp6/Clampex software (Axon Instruments). Series resistance was cancelled typically by ˜75% when necessary.
# The following voltage pulse protocols A, B, C, and D were used to assess the potency and kinetics of inhibition of the Na^+ channels by the compounds (FIGS. 1A-1D).
# Current-voltage relationship (IV-curve), protocol A (FIG. 1A), was used to report the voltage at which the maximal inward Na^+ current is achieved. This voltage was used throughout the experiment as testing voltage, Vt. The steady-state inactivation (or, availability) curve, protocol C (FIG. 1C), was used to get the voltage at which almost complete (≧95%) inactivation of Na^+ channels occurs; it served as voltage for conditioning prepulse, Vc, throughout the experiment. Protocol B (FIG. 1B) reports how fast the channels recover from inactivation at hyperpolarized voltages. This permitted us to set up the duration of the hyperpolarization gap which is used in measurement of the kinetics of binding of compounds to inactivated Na^+ channels (protocol D (FIG. 1D)). Channel repriming under control conditions was fast (≧90% recovery during first 5-10 ms). If a drug substantially retards the repriming process then it becomes possible (protocol D) to accurately measure the kinetics of binding of the inhibitor to inactivated channels as well as the steady-state affinity (k+ and Ki). To estimate k+ values the reduction in peak currents in successive trials with varying pre-pulse duration was plotted as a function of pre-pulse duration and the time constant (τ) measured by mono-exponential fit. A plot of 1/τ as a function of antagonist concentration then allowed calculating of the macroscopic binding rates of the antagonists. […]
# [2] = tested on: Chung model of neuropathic pain (tactile allodynia); experiment: Chung model of neuropathic pain, tactile antiallodynia effect; assay type: in vivo; settings: rats, p.o.
# From the text: The compounds may be tested for their potential for the treatment of chronic pain (antiallodynic and antihyperalgesic activities) in the Chung model of peripheral neuropathy. Male Sprague-Dawley rats weighing between 200-225 g were anesthetized with halothane (1-3% in a mixture of 70% air and 30% oxygen) and their body temperature controlled during anesthesia through use of a homeothermic blanket. A 2-cm dorsal midline incision was then made at the L5 and L6 level and the para-vertibral muscle groups retracted bilaterally. L5 and L6 spinal nerves were then be exposed, isolated, and tightly ligated with 6-0 silk suture. A sham operation was performed exposing the contralateral L5 and L6 spinal nerves as a negative control.
# Tactile Allodynia: Rats were transferred to an elevated testing cage with a wire mesh floor and allowed to acclimate for five to ten minutes. A series of Semmes-Weinstein monofilaments were applied to the plantar surface of the hindpaw to determine the animal's withdrawal threshold. […] This procedure was repeated with subsequent lesser filaments until there was no response and the lightest filament that elicited a response was recorded. […] For each animal, three measurements were made at every time point to produce an average withdrawal threshold determination. Tests were performed prior to and at 1, 2, 4 and 24 hours post drug administration. Tactile allodynia and mechanical hyperalgesia tests were conducted concurrently.
# The tactile antiallodynia effect of the compounds listed in Table 4 was tested in the Chung model of neuropathic pain in rats as described above and described by Kim and Chung (Pain 50:355-363 (1992)). […]
# [3] = tested on: maximal electroshock-induced seizures (MES); experiment: Maximum electroshock seizure test (MES), anticonvulsant evaluation; assay type: in vivo; settings: Mus musculus, mice
# From the text: The compounds of the present invention may be tested for in vivo anticonvulsant activity after i.v., p.o. or i.p. injection using a number of anticonvulsant tests in mice, including the maximum electroshock seizure test (MES). Maximum electroshock seizures were induced in male NSA mice weighing between 15-20 g and male Sprague-Dawley rats weighing between 200-225 g by application of current (50 mA, 60 pulses/sec, 0.8 msec pulse width, 1 sec duration, D.C., mice; 99 mA, 125 pulses/sec, 0.8 msec pulse width, 2 sec duration, D.C., rats) using a Ugo Basile ECT device (Model 7801). Mice were restrained by gripping the loose skin on their dorsal surface and saline-coated corneal electrodes were held lightly against the two corneae. Rats were allowed free movement on the bench top and ear-clip electrodes were used. […] A tonic seizure was defined as a hindlimb extension in excess of 90 degrees from the plane of the body. Results were treated in a quantal manner.
# The ability of 4-[4-(4-fluorophenoxy)phenyl]-pyrimidine-2-carboxamide to block maximal electroshock-induced seizures (MES) was determined according to the method above.
# 4-[4-(4-Fluorophenoxy)phenyl]-pyrimidine-2-carboxamide was administered p.o. to mice 30 minutes before the test procedure.
# The following compounds on Table 1 were tested accordingly after a p.o. administration and also after an i.v. injection. The compounds were injected i.v. 15 minutes before the test procedure.
# [4] = iv, i.v. injection 15 minutes before the test, read-out: MES i.v. ED50
# [5] = po, p.o., 30 minutes before the test, ED50 = dose protecting 50% of animals, read-out: MES p.o. ED50
Ki [1] [nM],inhibition of voltage-gated sodium currents [1],melting point [°C],SMILES,MED (minimal effective dose) [2] [Mg/kg],"ED50 [3, 4] [mg/kg]","ED50 [3, 5] [mg/kg]"
360,,,"NC(=O)c1nccc(-c2ccc(Oc3ccc(F)cc3F)cc2)n1 [4-[4-(2,4-Difluorophenoxy)phenyl]-pyrimidine-2-carboxamide]",,0.9,1.4
490,dose-dependent inhibition,,NC(=O)c1nccc(-c2ccc(Oc3ccc(F)cc3)cc2)n1 [4-[4-(4-Fluorophenoxy)phenyl]-pyrimidine-2-carboxamide],,0.7,1.6
13500,,,CN(C)C(=O)c1nccc(-c2ccc(Oc3ccc(F)cc3)cc2)n1 [4-[4-(4-Fluorophenoxy)phenyl]-pyrimidine-2-carboxylic acid dimethylamide],,,
180,,,CC(C)(C)NC(=O)c1nccc(-c2ccc(Oc3ccc(F)cc3)cc2)n1 [4-[4-(4-Fluorophenoxy)phenyl]-pyrimidine-2-carboxylic acid tert-butylamide],,,
51000,,,O=C(O)c1nccc(-c2ccc(Oc3ccc(F)cc3)cc2)n1 [4-[4-(4-Fluorophenoxy)phenyl]-pyrimidine-2-carboxylic acid],,,
210,,,NC(=O)c1nccc(-c2ccc(Oc3ccc(C(F)(F)F)cc3)cc2)n1 [4-[4-(4-Trifluoromethylphenoxy)phenyl]-pyrimidine-2-carboxamide],,0.5,2.5

# Further lines, the compound ahead of its results:
SMILES,Ki [1] [nM],inhibition of voltage-gated sodium currents [1],melting point [°C],MED (minimal effective dose) [2] [Mg/kg],"ED50 [3, 4] [mg/kg]","ED50 [3, 5] [mg/kg]"
NC(=O)c1ccnc(-c2ccc(Oc3ccc(Cl)cc3F)cc2)n1 [2-[4-(4-Chloro-2-fluorophenoxy)phenyl]pyrimidine-4-carboxamide],220,,,1.25,2.3,5.7
NC(=O)c1ccnc(-c2ccc(Oc3ccc(F)cc3)cc2)n1 [2-[4-(4-Fluorophenoxy)phenyl]pyrimidine-4-carboxamide],100,,,2.50,2.5,7.5
"Fc1ccc(Oc2ccc(-c3nccc(-c4nc[nH]n4)n3)cc2)cc1 [2-[4-(4-fluorophenoxy)phenyl]-4-[3-(1,2,4-triazolyl)]pyrimidine]",20000,,,,,
"NC(=O)c1nc(-c2ccc(Oc3ccccc3)cc2)c(N)nc1N [3,5-Diamino-6-(4-phenoxyphenyl)pyrazine-2-carboxamide]",2200,,,,,
NC(=O)c1cccc(-c2ccc(Oc3ccccc3)cc2)n1 [6-(4-Phenoxyphenyl)pyridine-2-carboxamide],,,178 to 180,,3.2,10.5
NC(=O)c1cccc(-c2ccc(Oc3ccc(F)cc3)cc2)n1 [6-[4-(4-Fluorophenoxy)phenyl]pyridine-2-carboxamide],70,,,2.50,1.2,3.3
